The compounds below were run on PMA-stimulated P90RSK(Ser380) phosphorylation in HepG2 cells (assay: Cellular P90RSK(Ser380) Phosphorylation Assay). Conditions: Homo sapiens, 1.5 hour compound incubation, PMA 100 ng/mL 30 min, normalized to GAPDH, read-out: P-P90RSK (S380) IC50.
Format: cell-based
Description: Cellular P90RSK(Ser380) Phosphorylation Assay
Inhibition of PMA-stimulated P90RSK(Ser380) phosphorylation was determined by the following in vitro cellular mechanistic assay, which comprises incubating cells with a compound for 1.5 hours and quantifying fluorescent pP90RSK(Ser380) signal on fixed cells and normalizing to GAPDH signal.
Materials and Methods: HepG2 cells were obtained from ATCC and grown in DMEM supplemented with 10% fetal bovine serum. Cells were plated in 96-well plates at 35,000 cells/well and allowed to attach overnight at 37° C./5% CO2. Diluted compounds were then added at a final concentration of 0.5% DMSO. After 1.5 hour compound incubation, cells were stimulated with the addition of PMA (phorbol 12-myristate 13-acetate) at a final concentration of 100 ng/mL; the PMA stimulation was a 30-minute incubation at 37° C./5% CO2. After the 30-minute PMA stimulation, cells were washed with PBS and fixed in 3.7% formaldehyde in PBS at room temperature for 15-20 minutes. This was followed by another wash in PBS and then permeabilization in 100% MeOH at room temperature for 10-15 minutes. Following the permeabilization incubation, cells were washed in PBS/0.05% Tween-20, followed by a block in Odyssey blocking buffer (LI-COR Biosciences) for at least 1 hour. Antibodies to phosphorylated P90RSK(Ser380) (Cell Signaling #9335, rabbit monoclonal) and GAPDH (Fitzgerald 10R-G109a, mouse monoclonal) were added to the cells and incubated overnight at 4° C. pP90RSK(Ser380) antibody was used at a 1:250 dilution; GAPDH was used at a 1:10,000 dilution. After washing with PBS/0.05% Tween-20, the cells were incubated with fluorescently-labeled secondary antibodies (Anti-rabbit-Alexa Flour680, Invitrogen Cat#A21109; Anti-mouse-IRDye800CW, Rockland Inc. Cat#610-131-121) for 1 hour. Both secondary antibodies were used at a 1:1000 dilution. Cells were then washed and analyzed for fluorescence at both wavelengths using the Odyssey Infrared Imaging System (LI-COR Biosciences). Phosphorylated P90RSK(Ser380) signal was normalized to GAPDH signal. Representative date is in TABLE II (infra).

Structure (SMILES)	IC50 [nM]
Cn1nccc1Nc1cc(-c2cc3n4c(nnc4c2)[C@@H](Cc2ccc(Cl)cc2)CO3)ccn1 [(R) I-48, 4-(3-(4-chlorobenzyl)-3,4-dihydro-5-oxa-1,2,2a^1-triazaacenaphthylen-7-yl)-N-(1-methyl-1H-pyrazol-5-yl)pyridin-2-amine]	1.73
Cn1nccc1Nc1nccc(-c2cc3n4c(nnc4c2)[C@@H](Cn2cc(C(F)(F)F)cn2)CCO3)n1 [(R) I-73, N-(1-methyl-1H-pyrazol-5-yl)-4-(9-((4-(trifluoromethyl)-1H-pyrazol-1-yl)methyl)-8,9-dihydro-7H-6-oxa-1,2,2a^1-triazabenzo[cd]azulen-4-yl)pyrimidin-2-amine]	4.47
CN1C(=O)N(Cc2ccccc2)c2nnc3cc(-c4ccnc(Nc5ccnn5C)n4)cc1n23 [Compound I-28, 3-benzyl-5-methyl-7-(2-((1-methyl-1H-pyrazol-5-yl)amino)pyrimidin-4-yl)-3H-1,2,2a^1,3,5-pentaazaacenaphthylen-4(5H)-one]	5.05
Cn1nccc1Nc1cc(-c2cc3n4c(nnc4c2)[C@@H](Cc2ccccc2)CN3)ccn1 [(S) I-7, 4-(3-benzyl-4,5-dihydro-3H-1,2,2a^1,5-tetraazaacenaaphthylen-7-yl)-N-(1-methyl-1H-pyrazol-5-yl)pyridin-2-amine]	3.87
Cn1nccc1Nc1nccc(-c2cc3n4c(nnc4c2)[C@@H](Cc2ccc(Cl)cc2)CCO3)n1 [(S) I-36, 4-(9-(4-chlorobenzyl)-8,9-dihydro-7H-6-oxa-1,2,2a^1-triazabenzo[cd]azulen-4-yl)-N-(1-methyl-1H-pyrazol-5-yl)pyrimidin-2-amine]	2.45
Cn1nccc1Nc1nccc(-c2cc3n4c(nnc4c2)[C@H](Oc2ccc(F)cc2)CCO3)n1 [(R) I-66, 4-(9-(4-fluorophenoxy)-8,9-dihydro-7H-6-oxa-1,2,2a^1-triazabenzo[cd]azulen-4-yl)-N-(1-methyl-1H-pyrazol-5-yl)pyrimidin-2-amine]	1
Cn1nccc1Nc1nccc(-c2cc3n4c(nnc4c2)[C@@H](Cc2ccccc2)CO3)n1 [(R) I-15, 4-(3-benzyl-3,4-dihydro-5-oxa-1,2,2a^1-triazaacenaphthylen-7-yl)-N-(1-methyl-1H-pyrazol-5-yl)pyrimidin-2-amine]	2.91
Cn1nccc1Nc1nccc(-c2cc3n4c(nnc4c2)[C@@H](COCc2ccccc2)CCO3)n1 [(S) I-29, 4-(9-((benzyloxy)methyl)-8,9-dihydro-7H-6-oxa-1,2,2a^1-triazabenzo[cd]azulen-4-yl)-N-(1-methyl-1H-pyrazol-5-yl)pyrimidin-2-amine]	7.94
CN1C(=O)C[C@H](Cc2ccc(Cl)cc2)c2nnc3cc(-c4ccnc(Nc5ccnn5C)n4)cc1n23 [(S) I-22, 9-(4-chlorobenzyl)-6-methyl-4-(2-((1-methyl-1H-pyrazol-5-yl)amino)pyrimidin-4-yl)-8,9-dihydro-1,2,2a^1,6-tetraazabenzo[cd]azulen-7(6H)-one]	1.41
Cn1nccc1Nc1nccc(-c2cc3n4c(nnc4c2)[C@@H](Cc2ccc(F)cc2)CN3)n1 [(S) I-21, 4-(3-(4-fluorobenzyl)-4,5-dihydro-3H-1,2,2a^1,5-tetraazaacenaphthylen-7-yl)-N-(1-methyl-1H-pyrazol-5-yl)pyrimidin-2-amine]	4.32
